The values that follow come from patent US9125937B2, “Labelled analogues of halobenzamides as multimodal radiopharmaceuticals and their precursors” (INSTITUT NATIONAL DE LA SANTE ET DE LA RECHERCHE MEDICALE …, priority 2008, dated 2015).

The subject of the data set is B16 F0 murine melanoma. In words: Biodistribution study by planar scintigraphic imaging (gamma camera), tumour uptake quantification. The class given is in vivo, C57BL6 male mice. The note with it: i.v. The protocol: Tumour Implantation. For transplantation, cells grown in monolayer culture to confluence were trypsinized and washed with phosphate buffer saline (PBS). They were resuspended in PBS and each mouse received 0.1 mL subcutaneously (3×10^5 cells) on the left flank in order to allow a tumour growth on the body side. Ten days later, the tumours became palpable with a percentage of tumour take of 98-100%.
The in vivo biodistribution and kinetic profile of each radiolabelled (iodine-125) compound have been studied in C57BL6 male mice bearing the B16 F0 murine melanoma by repeated planar scintigraphic imaging which allows the tumour uptake follow-up in the same animal.
Gamma Camera. In vivo radionuclide imaging was performed using a γ IMAGER (Biospace Mesures, Paris, France) especially dedicated for small animal, a scintigraphic camera with a continuous 4 mm thick×120 mm diameter CsI(Na) crystal, a position-sensitive Hamamatsu R3292 photomultiplier and a 10 cm field of view.
Imaging Protocol. On day 14 after tumour implantation (tumour weight 0.25±0.10 g) each [^125I]-radioiodinated compound was administered intravenously via a tail vein (0.1 μmol, range 3.7 to 7 MBq/animal) in three mice for each compound. At different times after administration (1, 3, 6, 24, 72 hours, 5, 7, 10 and 15 days), mice were anesthetized with 0.2 mL, for a 20 g mouse, of a ketamine-xylazine mixture in saline (1-0.25 mL for 5 mL) by i. p. administration, and repeated planar scintigraphic whole body imaging (mouse laying in anterior position on the camera field) were performed by an acquisition time of 10 min. For this study, the camera was equipped with a 1.8/0.2/20 collimator (hole diameter/septum thickness/height in mm).
Tumoural Radioactivity Quantification Approach. The injected activity to each mouse was determined from scintigraphic imaging of the syringe before and after the injection using the γ-IMAGER.
Regions of interest (ROIs) were delineated over the whole body image: whole body uptake area (or the various fixing areas, eyes, thyroid and abdomen) and one for the tumour uptake area. In the various ROIs, the activity (cpm) was quantified using the Biospace measures γ VISION+software. These values were normalized to the injected dose. For the tumour, the activity was also normalized to the tumour weight. Firstly, the volume was calculated from the two dimensions caliper measurement (Bissery, M. C.; Guenard, D.; Gueritte-Voegelin, F.; Lavelle, F. Experimental antitumour activity of taxotere (RP 56976, NSC 628503) a taxol analogue. Cancer res. 1991, 51, 4845-4852). Secondly, the weight was determined from the volume value corrected by a factor determined from a large panel of experiments (Weight g=volume mm^3×0.6). The data were expressed as % ID/g of B 16F0 melanoma tumour.

Where a name gives a salt, the structure may show the parent alone.

Regarding `CCN(CCNC(=O)c1cnc2cc([125I])ccc2n1)CCOc1cccnc1F` [[^125I]11, [^125I]N-[2-[N-ethyl-N-[2-(2-fluoropyridin-3-yloxy)ethyl]amino]ethyl]-6-iodoquinoxaline-2-carboxamide dihydrochloride salt], the “Radioactive concentration in tumour (tumoural uptake)” value (“Radioactive concentration in tumour” below) runs as follows: (1 H post injection) 12.7 ± 2.3 % ID/g; (6 H post injection) 18.8 ± 1.6 % ID/g; (24 H post injection) 18.2 ± 0.6 % ID/g; (72 H post injection) 10.3 ± 1.7 % ID/g; (120 H post injection) 5.2 ± 1.2 % ID/g; (168 H post injection) 3.2 ± 0.4 % ID/g. For the same compound, the “Radioactive concentration in tumour” value is 1.7 ± 0.4 % ID/g (240 H post injection) and 0.6 ± 0.3 % ID/g (360 H (15 days) post injection).

For `CCN(CCNC(=O)c1cnc2cc([125I])ccc2n1)CCNc1cccc(F)n1` [[^125I]17, [^125I]N-[2-[N-ethyl-N-[2-[(6-fluoropyridin-2-yl)amino]ethyl]amino]ethyl]-6-iodoquinoxaline-2-carboxamide dihydrochloride salt], the “Radioactive concentration in tumour” value (1 H post injection) stood at 13.1 ± 6.8 % ID/g; the “Radioactive concentration in tumour” value (3 H post injection) came to 13.7 ± 6.1 % ID/g; the “Radioactive concentration in tumour” value (6 H post injection) came out at 12.5 ± 3.9 % ID/g; the “Radioactive concentration in tumour” value (24 H post injection) was found to be 8.6 ± 0.9 % ID/g; the “Radioactive concentration in tumour” value (72 H post injection) worked out at 5.7 ± 1.5 % ID/g; the “Radioactive concentration in tumour” value (120 H post injection) was found to be 2.6 ± 0.4 % ID/g. The “Radioactive concentration in tumour” value was found to be 1.5 ± 0.2 % ID/g (168 H post injection), 0.8 ± 0.1 % ID/g (240 H post injection) and 0.4 ± 0.2 % ID/g (360 H (15 days) post injection).

Take `CCN(CCF)CCNC(=O)c1cnc2cc([125I])ccc2n1` [[^125I]26, [^125I]N-[2-[[N-ethyl-N-(2-fluoroethyl)]amino]ethyl]-6-iodoquinoxaline-2-carboxamide dihydrochloride salt]: the “Radioactive concentration in tumour” value (1 H post injection) stood at 21.4 ± 4.9 % ID/g; the “Radioactive concentration in tumour” value (6 H post injection) came to 25.0 ± 8.0 % ID/g; the “Radioactive concentration in tumour” value (24 H post injection) is listed as 24.8 ± 6.5 % ID/g; the “Radioactive concentration in tumour” value (120 H post injection) is 8.4 % ID/g; the “Radioactive concentration in tumour” value (240 H post injection) came to 1.6 % ID/g; the “Radioactive concentration in tumour” value (360 H (15 days) post injection) was 0.6 % ID/g.

For the compound `CCN(CCNC(=O)c1cnc2cc([125I])ccc2n1)Cc1ccnc(F)c1.Cl.Cl` [[^125I]34], the “Radioactive concentration in tumour” value is 10.3 ± 6.6 % ID/g (1 H post injection); 12.0 ± 4.8 % ID/g (3 H post injection); 15.4 ± 6.7 % ID/g (6 H post injection); 16.0 ± 7.4 % ID/g (24 H post injection); 10.0 ± 2.6 % ID/g (72 H post injection); 7.1 ± 1.8 % ID/g (120 H post injection). The “Radioactive concentration in tumour” value turned out to be 1.9 ± 0.9 % ID/g (240 H post injection) and 0.8 ± 0.5 % ID/g (360 H (15 days) post injection).

On to `CCN(CCNC(=O)c1ccnc(F)c1)CCNC(=O)c1cnc2cc([125I])ccc2n1.Cl.Cl` [[^125I]40], for which the “Radioactive concentration in tumour” value (1 H post injection) worked out at 9.6 ± 0.7 % ID/g; the “Radioactive concentration in tumour” value (3 H post injection) amounted to 8.8 ± 1.6 % ID/g; the “Radioactive concentration in tumour” value (6 H post injection) came out at 12.1 ± 3.2 % ID/g; the “Radioactive concentration in tumour” value (24 H post injection) is on record as 12.1 ± 4.6 % ID/g; the “Radioactive concentration in tumour” value (72 H post injection) is given as 9.6 ± 7.1 % ID/g; the “Radioactive concentration in tumour” value (120 H post injection) was 5.1 ± 3.3 % ID/g.

`CCN(CCNC(=O)c1cnc2cc([125I])ccc2n1)CCc1ccnc(F)c1.Cl.Cl` [[^125I]47]: the “Radioactive concentration in tumour” value amounted to 12.1 ± 4.1 % ID/g (1 H post injection); 13.3 ± 6.0 % ID/g (3 H post injection); 14.5 ± 6.6 % ID/g (6 H post injection); 11.2 ± 2.5 % ID/g (24 H post injection); 7.7 ± 0.9 % ID/g (72 H post injection); 5.2 ± 1.7 % ID/g (120 H post injection). The “Radioactive concentration in tumour” value by setting is: (168 H post injection) 3.0 ± 1.0 % ID/g; (240 H post injection) 1.6 ± 0.5 % ID/g; (360 H (15 days) post injection) 1.1 ± 0.3 % ID/g.

Consider `CCN(CCCc1ccnc(F)c1)CCNC(=O)c1cnc2cc([125I])ccc2n1.Cl.Cl` [[^125I]53], for which the “Radioactive concentration in tumour” value runs as follows: (1 H post injection) 9.1 ± 1.8 % ID/g; (3 H post injection) 9.3 ± 0.6 % ID/g; (6 H post injection) 14.1 ± 3.9 % ID/g; (24 H post injection) 16.3 ± 8.9 % ID/g; (72 H post injection) 9.5 ± 5.9 % ID/g; (120 H post injection) 5.1 ± 3.3 % ID/g. Also, the “Radioactive concentration in tumour” value runs as follows: (168 H post injection) 2.5 ± 2.1 % ID/g; (240 H post injection) 1.4 ± 1.0 % ID/g; (360 H (15 days) post injection) 0.7 ± 0.5 % ID/g.

With `CCN(C/C=C/CF)CCNC(=O)c1cnc2cc([125I])ccc2n1.Cl.Cl` [[^125I]57], the “Radioactive concentration in tumour” value is on record as 10.8 ± 2.3 % ID/g (1 H post injection); 12.3 ± 2.8 % ID/g (3 H post injection); 13.9 ± 1.3 % ID/g (6 H post injection); 15.0 ± 0.5 % ID/g (24 H post injection); 10.0 ± 0.9 % ID/g (72 H post injection); 5.6 ± 1.0 % ID/g (120 H post injection). The “Radioactive concentration in tumour” value is recorded as 3.3 ± 0.6 % ID/g (168 H post injection), 1.9 ± 0.3 % ID/g (240 H post injection) and 1.3 ± 0.6 % ID/g (360 H (15 days) post injection).

Regarding `CCN(CCNC(=O)c1ccc2cncc([125I])c2n1)CCOc1cccnc1F.Cl.Cl` [[^125I]74], the “Radioactive concentration in tumour” value by setting is: (1 H post injection) 5.6 ± 1.7 % ID/g; (3 H post injection) 5.5 ± 2.4 % ID/g; (6 H post injection) 5.3 ± 2.4 % ID/g; (24 H post injection) 5.2 ± 2.0 % ID/g; (72 H post injection) 3.3 ± 2.0 % ID/g; (120 H post injection) 1.6 ± 0.7 % ID/g. The “Radioactive concentration in tumour” value reads like this: (168 H post injection) 1.1 ± 0.5 % ID/g; (240 H post injection) 0.5 ± 0.3 % ID/g; (360 H (15 days) post injection) 0.4 ± 0.3 % ID/g.

As to `CCN(CCNC(=O)c1cccc2nc3cc([125I])ccc3nc12)CCOc1cccnc1F.Cl.Cl` [[^125I]85], the “Radioactive concentration in tumour” value is on record as 11.4 ± 1.7 % ID/g (1 H post injection); 12.3 ± 1.7 % ID/g (3 H post injection); 13.8 ± 2.5 % ID/g (6 H post injection); 13.8 ± 2.3 % ID/g (24 H post injection); 5.8 ± 0.2 % ID/g (72 H post injection); 3.7 ± 0.6 % ID/g (120 H post injection). Also, the “Radioactive concentration in tumour” value by setting is: (168 H post injection) 2.0 ± 0.9 % ID/g; (240 H post injection) 1.2 ± 0.5 % ID/g; (360 H (15 days) post injection) 0.7 ± 0.4 % ID/g.

Take `CCN(CC)Cc1ccnc(F)c1CNC(=O)c1cnc2cc([125I])ccc2n1.Cl.Cl` [[^125I]92]: the “Radioactive concentration in tumour” value runs as follows: (1 H post injection) 5.6 ± 2.0 % ID/g; (3 H post injection) 6.5 ± 3.2 % ID/g; (6 H post injection) 6.7 ± 1.9 % ID/g; (24 H post injection) 6.4 ± 1.8 % ID/g; (72 H post injection) 4.1 ± 1.5 % ID/g; (120 H post injection) 2.4 ± 0.7 % ID/g. Further, the “Radioactive concentration in tumour” value runs as follows: (168 H post injection) 1.5 ± 0.4 % ID/g; (240 H post injection) 0.8 ± 0.3 % ID/g; (360 H (15 days) post injection) 0.7 ± 0.1 % ID/g.
